14 compounds from ChEMBL document CHEMBL1201862, “PubChem BioAssay data set” (2004) can be followed below.

SMILES strings stand for the structures. The source made the active and inactive calls.

What all share (type): functional
Assay [1] concerns the target Beta-2 adrenergic receptor (Homo sapiens, UniProt P07550). The experiment in a line: ADRB2 activation measured by internalization – cell-based, FAP fluorogen, flow cytometry, cherry pick 1, dose response (AID 588763). Background: A flow cytometer gives signals particle by particle.
The next assay relates to HeLa. Briefly: ATP-based viability loss in HeLa cells – cell-based, CellTiter-Glo luminescence, cherry-pick samples, cytotoxicity control for MITF activator project, dose response (AID 540259). The settings on record: Homo sapiens. For orientation: ATP-based viability assays read luminescence as a measure of living cells.
A further assay concerns the target T1, Hexokinase (Trypanosoma brucei, UniProt Q38C41).
T1 sequence (Q38C41 whole entry): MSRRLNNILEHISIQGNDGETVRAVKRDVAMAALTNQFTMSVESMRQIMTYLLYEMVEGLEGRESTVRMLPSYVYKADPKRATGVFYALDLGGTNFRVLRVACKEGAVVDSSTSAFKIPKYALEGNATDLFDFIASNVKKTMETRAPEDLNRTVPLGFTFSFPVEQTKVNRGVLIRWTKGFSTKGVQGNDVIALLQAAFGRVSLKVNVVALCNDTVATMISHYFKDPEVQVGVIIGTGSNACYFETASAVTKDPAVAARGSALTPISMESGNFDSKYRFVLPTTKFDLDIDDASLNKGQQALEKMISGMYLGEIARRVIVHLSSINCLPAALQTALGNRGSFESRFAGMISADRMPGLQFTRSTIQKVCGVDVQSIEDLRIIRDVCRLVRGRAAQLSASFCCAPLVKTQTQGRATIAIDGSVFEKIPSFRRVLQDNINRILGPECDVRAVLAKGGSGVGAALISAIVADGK
The experiment in a line: Confirmation assay for inhibitors of Trypanosoma brucei hexokinase 1-Analogue-first series. [Related pubchem assays (depositor defined):AID1430, AID1632, AID2516, AID2560, AID2579, AID2600, AID449725, AID492951].

In assay [2] the target is T2, Sentrin-specific protease 6 (Homo sapiens, UniProt Q9GZR1).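 Also: Luminescence-based dose-response confirmatory assay of SENP6 inhibition, following up an ultra-high-throughput screen.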
T2 sequence (Q9GZR1 whole entry): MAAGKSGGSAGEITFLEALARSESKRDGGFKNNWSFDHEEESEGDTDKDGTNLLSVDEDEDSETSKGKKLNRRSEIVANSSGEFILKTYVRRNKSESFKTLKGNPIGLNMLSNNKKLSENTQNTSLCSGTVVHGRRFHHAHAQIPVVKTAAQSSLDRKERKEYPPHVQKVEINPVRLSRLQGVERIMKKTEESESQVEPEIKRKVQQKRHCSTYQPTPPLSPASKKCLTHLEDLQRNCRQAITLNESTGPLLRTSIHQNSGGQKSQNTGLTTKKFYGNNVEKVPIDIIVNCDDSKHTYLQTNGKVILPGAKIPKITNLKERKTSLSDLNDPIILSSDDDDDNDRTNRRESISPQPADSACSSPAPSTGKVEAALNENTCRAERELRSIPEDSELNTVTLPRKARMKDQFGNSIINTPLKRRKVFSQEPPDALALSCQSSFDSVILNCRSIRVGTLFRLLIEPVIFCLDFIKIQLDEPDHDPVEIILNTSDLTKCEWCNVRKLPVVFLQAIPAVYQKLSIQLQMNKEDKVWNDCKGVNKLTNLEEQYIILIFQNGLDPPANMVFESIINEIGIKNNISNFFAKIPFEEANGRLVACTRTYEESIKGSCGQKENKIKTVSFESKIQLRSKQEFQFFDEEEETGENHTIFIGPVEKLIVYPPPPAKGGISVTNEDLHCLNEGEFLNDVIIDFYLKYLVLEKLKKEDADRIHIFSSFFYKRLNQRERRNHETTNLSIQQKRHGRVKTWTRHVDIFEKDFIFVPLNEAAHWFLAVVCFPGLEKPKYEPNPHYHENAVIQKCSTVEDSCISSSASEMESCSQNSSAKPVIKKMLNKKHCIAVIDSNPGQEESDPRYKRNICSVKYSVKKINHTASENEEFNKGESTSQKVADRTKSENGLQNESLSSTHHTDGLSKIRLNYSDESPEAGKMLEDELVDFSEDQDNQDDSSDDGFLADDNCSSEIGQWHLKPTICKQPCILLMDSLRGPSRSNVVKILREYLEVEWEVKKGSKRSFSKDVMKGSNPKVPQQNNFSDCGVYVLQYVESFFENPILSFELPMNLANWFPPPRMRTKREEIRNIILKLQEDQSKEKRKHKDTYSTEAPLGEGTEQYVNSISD

The target of another assay is T3, Caspase-3 (Homo sapiens, UniProt P42574).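 Also: Dose-response selectivity test against caspase-3 for candidate inhibitors of sentrin-specific proteases (SENPs).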
T3 sequence (P42574 whole entry): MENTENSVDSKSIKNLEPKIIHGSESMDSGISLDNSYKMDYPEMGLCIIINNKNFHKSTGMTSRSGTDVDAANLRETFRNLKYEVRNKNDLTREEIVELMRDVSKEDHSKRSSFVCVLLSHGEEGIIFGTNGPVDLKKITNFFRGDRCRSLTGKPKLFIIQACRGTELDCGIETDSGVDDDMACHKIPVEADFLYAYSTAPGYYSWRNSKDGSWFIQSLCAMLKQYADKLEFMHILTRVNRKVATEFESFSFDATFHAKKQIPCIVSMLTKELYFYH

Assay [3] has as its target T4, Sentrin-specific protease 7 (Homo sapiens, UniProt Q9BQF6).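 Also: Luminescence-based dose-response confirmation of ultra-high-throughput screening hits, measuring inhibition of SENP7.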
T4 sequence (Q9BQF6 whole entry): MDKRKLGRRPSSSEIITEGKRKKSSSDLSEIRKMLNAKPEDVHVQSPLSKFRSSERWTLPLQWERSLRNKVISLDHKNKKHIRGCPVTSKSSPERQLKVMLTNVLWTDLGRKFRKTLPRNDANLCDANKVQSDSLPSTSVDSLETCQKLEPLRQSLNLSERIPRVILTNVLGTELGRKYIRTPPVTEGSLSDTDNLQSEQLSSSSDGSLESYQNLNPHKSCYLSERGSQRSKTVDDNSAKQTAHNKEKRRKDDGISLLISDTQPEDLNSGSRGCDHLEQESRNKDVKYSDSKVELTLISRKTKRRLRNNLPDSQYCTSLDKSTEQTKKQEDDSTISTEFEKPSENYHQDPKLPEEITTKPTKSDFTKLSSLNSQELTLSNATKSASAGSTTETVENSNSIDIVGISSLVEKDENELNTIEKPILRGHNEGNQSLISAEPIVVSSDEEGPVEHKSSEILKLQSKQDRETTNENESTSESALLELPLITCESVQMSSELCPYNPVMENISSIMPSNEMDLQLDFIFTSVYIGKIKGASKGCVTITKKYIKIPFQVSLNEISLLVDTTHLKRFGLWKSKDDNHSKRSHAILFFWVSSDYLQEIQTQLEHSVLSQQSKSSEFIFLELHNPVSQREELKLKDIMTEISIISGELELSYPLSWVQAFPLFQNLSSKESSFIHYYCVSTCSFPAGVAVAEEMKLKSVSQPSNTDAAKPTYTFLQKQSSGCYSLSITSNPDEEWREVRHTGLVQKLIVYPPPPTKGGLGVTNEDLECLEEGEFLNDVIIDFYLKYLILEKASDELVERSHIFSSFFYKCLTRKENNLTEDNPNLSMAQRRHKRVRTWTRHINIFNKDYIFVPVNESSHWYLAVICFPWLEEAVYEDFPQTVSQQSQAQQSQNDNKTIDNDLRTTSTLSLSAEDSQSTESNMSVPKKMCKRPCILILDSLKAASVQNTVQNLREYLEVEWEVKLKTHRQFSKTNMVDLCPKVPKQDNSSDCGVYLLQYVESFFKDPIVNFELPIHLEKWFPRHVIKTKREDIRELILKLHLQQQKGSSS

Assay [4] addresses T5, Sentrin-specific protease 8 (Homo sapiens, UniProt Q96LD8).
T5 sequence (Q96LD8 whole entry): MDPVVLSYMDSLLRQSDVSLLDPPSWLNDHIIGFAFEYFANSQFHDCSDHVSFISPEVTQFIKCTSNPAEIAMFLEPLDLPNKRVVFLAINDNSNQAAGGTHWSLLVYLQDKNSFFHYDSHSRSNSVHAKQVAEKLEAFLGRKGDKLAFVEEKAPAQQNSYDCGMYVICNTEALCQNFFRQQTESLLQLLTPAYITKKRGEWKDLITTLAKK

In the next assay the target is T6, Protein skinhead-1 (Caenorhabditis elegans, UniProt P34707).
T6 sequence (P34707 whole entry): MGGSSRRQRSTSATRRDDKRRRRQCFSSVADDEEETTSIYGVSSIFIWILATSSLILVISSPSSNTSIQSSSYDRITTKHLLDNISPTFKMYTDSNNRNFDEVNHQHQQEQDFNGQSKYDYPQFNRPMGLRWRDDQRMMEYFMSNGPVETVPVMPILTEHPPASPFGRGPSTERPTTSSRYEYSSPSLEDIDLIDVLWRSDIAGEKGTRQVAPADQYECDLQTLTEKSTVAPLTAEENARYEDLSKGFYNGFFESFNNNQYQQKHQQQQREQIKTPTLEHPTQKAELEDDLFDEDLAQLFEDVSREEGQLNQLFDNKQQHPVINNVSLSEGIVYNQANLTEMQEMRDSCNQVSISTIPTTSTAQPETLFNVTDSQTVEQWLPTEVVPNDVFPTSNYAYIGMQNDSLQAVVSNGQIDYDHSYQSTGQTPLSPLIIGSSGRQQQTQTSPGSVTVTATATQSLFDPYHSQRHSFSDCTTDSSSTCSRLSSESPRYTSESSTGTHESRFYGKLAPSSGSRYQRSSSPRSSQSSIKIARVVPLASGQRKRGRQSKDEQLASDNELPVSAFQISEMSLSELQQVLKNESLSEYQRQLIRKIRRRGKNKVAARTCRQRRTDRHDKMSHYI

Assay [5] addresses T7, Short transient receptor potential channel 4 (Mus musculus, UniProt Q9QUQ5).
T7 sequence (Q9QUQ5 whole entry): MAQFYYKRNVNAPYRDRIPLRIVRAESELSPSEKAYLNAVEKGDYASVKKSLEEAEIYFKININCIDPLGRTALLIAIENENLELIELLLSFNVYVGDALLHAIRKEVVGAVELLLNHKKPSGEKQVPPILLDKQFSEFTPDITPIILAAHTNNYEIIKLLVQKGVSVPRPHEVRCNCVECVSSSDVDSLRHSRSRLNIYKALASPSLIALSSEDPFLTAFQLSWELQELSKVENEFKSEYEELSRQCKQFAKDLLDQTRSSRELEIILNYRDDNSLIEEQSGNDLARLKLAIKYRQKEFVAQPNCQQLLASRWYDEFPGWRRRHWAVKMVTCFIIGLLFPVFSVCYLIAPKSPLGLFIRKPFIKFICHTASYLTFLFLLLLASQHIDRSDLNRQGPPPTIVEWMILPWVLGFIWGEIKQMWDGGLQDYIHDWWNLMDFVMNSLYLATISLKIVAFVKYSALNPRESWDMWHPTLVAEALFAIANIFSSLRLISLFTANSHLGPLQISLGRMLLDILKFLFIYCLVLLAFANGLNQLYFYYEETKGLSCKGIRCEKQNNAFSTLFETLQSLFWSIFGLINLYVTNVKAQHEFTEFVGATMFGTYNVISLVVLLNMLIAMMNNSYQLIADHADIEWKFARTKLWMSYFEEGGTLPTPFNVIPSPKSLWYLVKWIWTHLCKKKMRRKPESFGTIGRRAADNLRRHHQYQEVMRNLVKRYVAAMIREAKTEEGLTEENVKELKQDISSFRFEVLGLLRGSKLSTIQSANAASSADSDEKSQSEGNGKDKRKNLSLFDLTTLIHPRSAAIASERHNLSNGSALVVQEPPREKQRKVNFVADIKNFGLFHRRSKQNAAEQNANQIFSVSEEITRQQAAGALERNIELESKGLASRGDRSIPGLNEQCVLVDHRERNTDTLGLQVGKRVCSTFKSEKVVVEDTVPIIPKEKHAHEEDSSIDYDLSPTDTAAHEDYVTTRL
The experiment in a line: calcium entry via TRPC4 opening agents – cell-based, HEK293 TRPC4/mu-opioid, Fluo-4 calcium, dose response (AID 434937).

A short description of assay [6]: Luminescence Cell-Based Dose Retest to Confirm Inhibitors of Cancer Stem Cells. [Related pubchem assays (depositor defined):AID2717, AID2721]. Particulars: Homo sapiens.

Chain of Beta-2 adrenergic receptor (P07550 whole entry): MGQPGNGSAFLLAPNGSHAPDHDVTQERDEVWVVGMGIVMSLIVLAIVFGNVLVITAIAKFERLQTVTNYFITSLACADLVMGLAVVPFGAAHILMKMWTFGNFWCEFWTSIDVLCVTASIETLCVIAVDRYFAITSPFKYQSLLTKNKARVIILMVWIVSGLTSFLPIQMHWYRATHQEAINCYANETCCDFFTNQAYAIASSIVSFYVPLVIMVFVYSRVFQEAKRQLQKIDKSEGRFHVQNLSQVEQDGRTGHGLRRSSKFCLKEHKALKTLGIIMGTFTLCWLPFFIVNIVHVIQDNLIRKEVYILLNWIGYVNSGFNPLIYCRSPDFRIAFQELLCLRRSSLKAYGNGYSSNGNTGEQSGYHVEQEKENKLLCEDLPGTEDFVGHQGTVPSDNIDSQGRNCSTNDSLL

With `COc1ccc(C(C)=O)cc1COc1ccc(Cl)cc1Cl`, the 50% effective concentration (EC50) in [1] is 2.67 µM (active).

For the compound `O=C(Nc1ccc2c(c1)CCC2)C1CCCN(c2ncccn2)C1` (stereo not given), in the assay with HeLa, the AC50 was 104 µM (active).

Consider `N#Cc1ccccc1NC(=O)Cn1sc2ccccc2c1=O`, for which the IC50 on Hexokinase is 7.21 µM (active).

As to `COc1cc(OC)cc(-c2cc3cc(F)ccc3cn2)c1`, the concentration at half-maximal activity (AC50) in the assay on HeLa is 50.6 µM (active).

In the case of `Clc1ccc(-c2nnc(-c3ccccc3Cl)o2)cc1`, the IC50 in assay [2] was 3.19 µM (active); on Caspase-3, 3.19 µM (active); in assay [3], 2.65 µM (active); in [4], 8.03 µM (active); at Protein skinhead-1 it was > 100 µM (inactive).

For `O=C(/C=C/c1ccco1)Nc1ccc(N2CCCC2)cc1`, the IC50 (in assay [2]; on Caspase-3; in [3]; in assay [4]) was > 100 µM (inactive) each time.

Take `Cc1ccc(C(=O)Nc2cc(Cl)ccc2C(=O)O)c(C)c1`: the IC50 on Hexokinase was > 25 µM (inactive).

Take `Brc1ccc(/C=N/Nc2ccccn2)cc1`: the concentration for half-maximal inhibition (IC50) in [2] is 4.07 µM (active); on Caspase-3 it was 15.8 µM (active); in assay [3], 2.96 µM (active); in assay [4] it was > 100 µM (inactive).

As for `O=C(Cn1sc2ccccc2c1=O)N1CCOCC1`, the IC50 on Hexokinase was > 25 µM (inactive).

For `Cc1ccc(Sc2cc(N3CCOCC3)nc(-c3ccccc3)n2)cc1`, the EC50 in [1] is 4.82 µM (active).

In the case of `CCn1c(=O)cc(OCC(=O)NCCCN2CC(C)CC(C)C2)c2ccccc21` (stereo not given), the EC50 in [5] was 0.473 µM (active).

Regarding `CC1CC(C)CN(CCCNC(=O)c2csc3c2CCCCC3)C1` (stereo not given), the concentration for a half-maximal effect (EC50) in assay [5] is 4.73 µM (active).

On to `CCCNC(=O)Nc1nc2ccccc2s1`, for which the concentration at half-maximal activity (AC50) in the assay with HeLa was 191 µM (active).

For the compound `Brc1ccc(/C=N/Nc2ccccc2)cc1`, the AC50 was 65.5 µM (active) in the assay on HeLa and 3.98 µM (active) in [6].

By EC50 is commonly meant the concentration giving half of the maximal effect. For orientation: AC50 means the concentration giving half of the maximal activity seen. One may read the IC50 as the concentration that gives 50% inhibition.
